Tests used:
[1] = Stability to isolation from radio-HPLC effluent, evaporation and dissolution in PBS (radio-HPLC reinjection); format: physicochemical; conditions: evaporation of solvents, dissolution in PBS
Experimental: Similarly, radiohalogenation of para-tri-n-butylstannylbenzamidyl-dPEG4-carboxylic acid methyl ester 9 (Figure 3) using ChT as oxidant provided quantitative yields of [^125I]10 and [^211At]12 by radio-HPLC analyses (Figure 4A,B). The radiohalogenation reaction products were used without purification in the oxidation reactions to make the corresponding iodoxyaryl or astatoxyaryl compounds. Oxidation of [^125I]5 (Figure 2) provided [^125I]6 in 71% RCY. Oxidation of [^125I]10 (Figure 3) at 70 °C for 20 min provided a complex mixture of products, but isolation of the major peak (~6–8 min) provided [^125I]11 in 60% RCY (Figure 4C,E). […]
Two biodistribution studies were conducted. One biodistribution study evaluated the tissue distribution in athymic mice of isolated products from the reactions to produce [^125I]11 and [^211At]13. […]
HPLC analyses of non-radioactive compounds were performed using a system composed of a Hewlett-Packard quaternary 1050 gradient pump, a variable wavelength UW detector (254 nm) and an evaporative light scattering detector (ELSD 2000, Alltech, Deerfield, IL, USA). Radio-HPLC analysis of product mixtures from radiohalogenation reactions were analyzed using a system composed of two Beckman model 110 B pumps, a Beckman 420 controller, a Beckman model 153 UV detector (254 nm), and a Beckman model 170 radiation detector. […]

[2] = Solubility observations; format: physicochemical
[3] = Biodistribution of coinjected [125I]11 and [211At]13 in athymic mice; format: in vivo; conditions: tail vein coinjection, 3 µCi each, n = 5, mean ± SD; for Concentration of radioactivity in neck: neck (thyroid)

**Q.** Which “Stability under the conditions of isolation by radio-HPLC” value [1] does the source give for `COC(=O)CCOCCOCCOCCOCCNC(=O)c1ccc([211At](=O)=O)cc1` [[211At]13, p-[^211At]astatoxylbenzoyl-dPEG-methyl ester] here?
**A.** Its value is “too unstable”.

**Q.** What does the source list for `COC(=O)c1ccc(I(=O)=O)cc1` [Compound 6, Para-Iodoxybenzoic Acid Methyl Ester]?
**A.** melting point: 243 to 245 °C; Solubility in DMSO ([2]; DMSO at room temperature): only partially soluble; Solubility ([2]; all solvents tried): very insoluble in all solvents tried

**Q.** With `COC(=O)CCOCCOCCOCCOCCNC(=O)c1ccc([125I](=O)=O)cc1` [[125I]11] as the compound, how does the “Stability under the conditions of isolation by radio-HPLC” value [1] read?
**A.** The value was “did not change during that process”.

**Q.** What about the “Concentration of radioactivity in blood” value ([3]; 1 h p.i.) of the same compound?
**A.** Its value is 0.22 ± 0.14 %ID/g.

**Q.** What about the “Concentration of radioactivity in intestine” value (shortened to “Concentration … in intestine”) ([3]; 1 h p.i.) of the same compound?
**A.** The value was 9.59 ± 8.73 %ID/g.

**Q.** What about the “Concentration of radioactivity in kidney” value ([3]; 1 h p.i.) of the same compound?
**A.** Its value is 0.84 ± 0.23 %ID/g.

**Q.** And the “Concentration of radioactivity in liver” value ([3]; 1 h p.i.)?
**A.** The value was 1.73 ± 0.96 %ID/g.

**Q.** And the “Concentration of radioactivity in lung” value ([3]; 1 h p.i.)?
**A.** Its value is 0.32 ± 0.10 %ID/g.

**Q.** And the “Concentration of radioactivity in muscle” value ([3]; 1 h p.i.)?
**A.** The value was 0.12 ± 0.05 %ID/g.

**Q.** What about the “Concentration of radioactivity in spleen” value ([3]; 1 h p.i.) of the same compound?
**A.** Its value is 0.35 ± 0.28 %ID/g.

**Q.** And the “Concentration of radioactivity in stomach” value (“Concentration … in stomach” below) ([3]; 1 h p.i.)?
**A.** Its value is 3.53 ± 1.09 %ID/g.

**Q.** What about the “Concentration of radioactivity in blood” value ([3]; 4 h p.i.) of the same compound?
**A.** The value was 0.23 ± 0.18 %ID/g.

**Q.** And the “Concentration … in intestine” value ([3]; 4 h p.i.)?
**A.** Its value is 3.39 ± 1.15 %ID/g.

**Q.** And the “Concentration of radioactivity in kidney” value ([3]; 4 h p.i.)?
**A.** The value was 0.40 ± 0.15 %ID/g.

**Q.** What about the “Concentration of radioactivity in liver” value ([3]; 4 h p.i.) of the same compound?
**A.** Its value is 0.64 ± 0.47 %ID/g.

**Q.** What about the “Concentration of radioactivity in lung” value ([3]; 4 h p.i.) of the same compound?
**A.** The value was 0.14 ± 0.07 %ID/g.

**Q.** And the “Concentration of radioactivity in muscle” value ([3]; 4 h p.i.)?
**A.** Its value is 0.03 ± 0.01 %ID/g.

**Q.** And the “Concentration of radioactivity in spleen” value ([3]; 4 h p.i.)?
**A.** The value was 0.08 ± 0.04 %ID/g.

**Q.** And the “Concentration … in stomach” value ([3]; 4 h p.i.)?
**A.** Its value is 0.65 ± 0.16 %ID/g.

**Q.** What about the “Concentration of radioactivity in blood” value ([3]; 24 h p.i.) of the same compound?
**A.** The value was 0.01 ± 0.00 %ID/g.

**Q.** And the “Concentration … in intestine” value ([3]; 24 h p.i.)?
**A.** Its value is 0.02 ± 0.01 %ID/g.

**Q.** What about the “Concentration of radioactivity in kidney” value ([3]; 24 h p.i.) of the same compound?
**A.** Its value is 0.03 ± 0.01 %ID/g.

**Q.** What about the “Concentration of radioactivity in liver” value ([3]; 24 h p.i.) of the same compound?
**A.** Its value is 0.01 ± 0.00 %ID/g.

**Q.** And the “Concentration of radioactivity in lung” value ([3]; 24 h p.i.)?
**A.** The value was 0.54 ± 0.85 %ID/g.

**Q.** What about the “Concentration of radioactivity in spleen” value ([3]; 24 h p.i.) of the same compound?
**A.** Its value is 0.01 ± 0.00 %ID/g.

**Q.** What about the “Concentration … in stomach” value ([3]; 24 h p.i.) of the same compound?
**A.** The value was 0.02 ± 0.01 %ID/g.

**Q.** And the “Concentration of radioactivity in neck” value ([3]; 1 h p.i.)?
**A.** Its value is 0.49 ± 0.09 %ID/g.

**Q.** What about the “Concentration of radioactivity in neck” value ([3]; 4 h p.i.) of the same compound?
**A.** Its value is 0.35 ± 0.14 %ID/g.

**Q.** And the “Concentration of radioactivity in neck” value ([3]; 24 h p.i.)?
**A.** The value was 0.02 ± 0.01 %ID/g.
